The test system of this test is IL-1β secretion, THP-1 cells. Nature of the test: IL-1β secretion assay in PMA-differentiated THP-1 cells stimulated with LPS and nigericin (ELISA readout). In kind it is cell-based. Particulars: 25 ng/mL LPS then nigericin. On the procedure: Compounds as provided herein were tested in the following assay. Cell culture medium employed contained RPMI 1640 medium (89%), FBS (10%), Pen/Strep (1%), and 2-mercaptoethanol (0.05 mM). Freezing medium was made up of 90% FBS and 10% DMSO. THP-1 cells were removed from the liquid nitrogen and placed into a 37° C. water bath to thaw, until signs of ice dissipated. The cells were then added to 9 mL of warm cell culture medium and centrifuged for 5 minutes at 1000 rpm. The supernatant was discarded, and the cells were resuspended in new cell culture medium. THP-1 cells were then split and cultured in the cell culture medium, being passaged every 2-3 days with the cell density will be maintained between 5×10^5 and 1.5×10^6 viable cells/mL.
PMA was dissolved in DMSO to make a stock solution at 5 mg/ml and stored in 10 µl aliquots at -20° C. for single use. PMA is added to normal growth medium. LPS was diluted with 1 mL of water solution to provide a 1 mg/mL stock solution and stored in 15 µl aliquots at -20° C. for single use. Nigericin is diluted in ice cold 100% ethanol to 5 mg/ml (6.7 mM) and stored in 75 µL aliquots at -20° C. for single use. Serum-free media contains RPMI 1640 medium (99%), Pen/Strep (1%), and 2-mercaptoethanol (0.05 mM). The two control conditions used to qualify and normalize test compound dose-response curves were as follows: High Control = 25 ng/mL LPS, 5 µM Nigericin, 0.5% DMSO, Low Control = 25 ng/mL, LPS, 0.5% DMSO.
THP-1 cells were diluted to provide a suspension at a concentration of 1.0×10^6 cells/mL with the total volume of suspension required to enable the desired number of assay plates. The growth media was supplemented with PMA (5 ng/mL final concentration) and the cells were incubated at 37° C. under a humidified atmosphere of 5% CO2 for 40 h.
All media was carefully aspirated from each culture flask. The cells were washed carefully with 1x DPBS. The cells were then briefly digested with trypsin LE for 5 minutes at 23° C. and immediately resuspended in cell growth media. After resuspension, the cells were centrifuged at 1000 rpm for 3 minutes and the supernatant was discarded. The cells were resuspended in DPBS and once again centrifuged at 1000 rpm for 5 minutes. The supernatant was discarded and the cell pellet was resuspended in serum-free media supplemented with LPS (25 ng/mL final concentration) to enable the distribution of 30 K THP-1 cells within 45 µL of media into each well of 384-well PDL-coated plates. The 384-well plates were then incubated at 37° C. under a humidified atmosphere of 5% CO2 for 2 h. Following this period, test compounds were dispensed by Tecan across the desired concentration range with all wells normalized to a final 0.5 % DMSO concentration. The plates were then then incubated at 37° C. under a humidified atmosphere of 5% CO2 for 1 h. Following this period, 5 µL of the […] nigericin stock solution was added to each of the appropriate wells and plates were centrifuged at 1000 rpm for 30 seconds. The plates were the immediately reintroduced to the incubator at 37° C. under a humidified atmosphere of 5% CO2 for 2 h. After this time, 35 µL/well of supernatant was collected and transferred into v-bottom plate and centrifuged at 1000 rpm for 1 minute. These supernatant aliquots were analyzed using an IL-Iβ detection kit as described below. If needed, the test samples could be snap frozen and stored at -80° C. until analyzed.
To prepare each ELISA plate, capture antibody (mAb Mt175) was diluted with PBS to a final concentration of 2 µg/mL and then 20 µL of this solution was added to each well of the ELISA plate. Each plate was allowed to incubate overnight at 4° C. The next day, the capture antibody solution was removed and discarded. Each ELISA plate was washed 4 times with PBST followed by the addition of 25 µL/well of blocking buffer (Licor-927-40010) supplemented with 0.1% Tween 20. Each ELISA plate was then allowed to incubate for 1 hour at 23° C. […]
A general note: ELISA stands for enzyme-linked immunosorbent assay.

Where [1] appears, read: Homo sapiens, THP-1, inhibition of IL-1β secretion, class column of Table 3.
Where [2] appears, read: Homo sapiens, THP-1, inhibition of IL-1β secretion, numeric column of Table 3.
Where [3] appears, read: inhibition of IL-1β secretion, class column of Table 3.
[4] abbreviates: inhibition of IL-1β secretion, numeric column of Table 3.

Molecules are shown by their SMILES. Where a name gives a salt, the structure may show the parent alone.

Broadly, the IC50 is the concentration that inhibits the measured activity by half. In turn, `CC(O)c1nn(CC(=O)Nc2ncccn2)c(=O)c2ccc(Br)cc12` (single isomer, unassigned) [Example 101, 2-(6-bromo-4-(1-hydroxyethyl)-1-oxophthalazin-2(1H)-yl)-N-(pyrimidin-2-yl)acetamide] registered an IC50 under setting [1] of less than 10000 nM and an IC50 under setting [2] of 1450 nM.
`CC(O)c1nn(CC(=O)Nc2ncccn2)c(=O)c2ccc(Br)cc12` (single isomer, unassigned) [Example 102, 2-(6-bromo-4-(1-hydroxyethyl)-1-oxophthalazin-2(1H)-yl)-N-(pyrimidin-2-yl)acetamide] yielded an IC50 under setting [3] of less than 10000 nM and an IC50 under setting [4] of 2440 nM.
For `O=C(Cn1nc([C@H]2C[C@H]2F)c2cc(Br)ccc2c1=O)Nc1ncc(F)cn1` (single isomer, unassigned) [Example 165, 2-[6-bromo-4-[2-cis-fluorocyclopropyl]-1-oxophthalazin-2-yl]-N-(5-fluoropyrimidin-2-yl)acetamide], the IC50 under setting [1] was less than 10000 nM and half-maximal inhibition under setting [4] (IC50) was put at 613 nM.
Turning to `O=C(Cn1nc([C@H]2C[C@H]2F)c2cc(Br)ccc2c1=O)Nc1ncc(F)cn1` (single isomer, unassigned) [Example 166, 2-[6-bromo-4-[2-cis-fluorocyclopropyl]-1-oxophthalazin-2-yl]-N-(5-fluoropyrimidin-2-yl)acetamide], the IC50 was less than 10000 nM under setting [3] and 237 nM under setting [4].
For the molecule `CC(C)c1nn(CC(=O)N[C@H]2C[C@@](C)(O)C2)c(=O)c2ccc(Br)cc12` [Example 1, 2-(6-Bromo-4-isopropyl-1-oxophthalazin-2(1H)-yl)-N-(cis-3-hydroxy-3-methylcyclobutyl)acetamide], the IC50 by setting is: under setting [1], less than 10000 nM; under setting [2], 30 nM.
`CC(C)c1nn(CC(=O)N[C@H]2C[C@@](C)(O)C2)c(=O)c2cc(Br)ccc12` [Example 2, 2-(7-Bromo-4-isopropyl-1-oxophthalazin-2(1H)-yl)-N-(cis-3-hydroxy-3-methylcyclobutyl)acetamide] gave a half-maximal inhibitory concentration (IC50) under setting [1] of less than 10000 nM and an IC50 under setting [2] of 2110 nM.
The matching figures for `CCN1CCC[C@@H](NC(=O)Cn2nc(C(C)C)c3cc(Br)ccc3c2=O)C1` [Example 3, (R)-2-(6-Bromo-4-isopropyl-1-oxophthalazin-2(1H)-yl)-N-(1-ethylpiperidin-3-yl)acetamide]: less than 10000 nM and 159 nM.
The matching figures for `CCN1CCC[C@@H](NC(=O)Cn2nc(C(C)C)c3cc(C)ccc3c2=O)C1` [Example 4]: less than 10000 nM and 1830 nM.
The matching figures for `CC(C)c1nn(CC(=O)N[C@@H]2CCCN(C3CC3)C2)c(=O)c2ccc(Br)cc12` [Example 5, (R)(6-Bromo-4-Isopropyl-1-Oxophthalazin-2(1H)-yl)-N-(1-Cyclopropylpiperidin-3-yl)Acetamide]: less than 10000 nM and 46 nM.
`CC(C)c1nn(CC(=O)Nc2ncncc2F)c(=O)c2ccc(Br)cc12` [Example 6, 2-(6-Bromo-4-isopropyl-1-oxophthalazin-2(1H)-yl)-N-(5-fluoropyrimidin-4-yl)acetamide]: the IC50 is less than 10000 nM under setting [1] and 121 nM under setting [2].
`CC(C)c1nn(CC(=O)N[C@@H]2CCCN(CC(F)(F)F)C2)c(=O)c2ccc(Br)cc12` [Example 7, (R)-2-(6-Bromo-4-isopropyl-1-oxophthalazin-2(1H)-yl)-N-(1-(2,2,2-trifluoroethyl)piperidin-3-yl)acetamide] yielded an IC50 under setting [1] of less than 10000 nM and an IC50 under setting [2] of 1030 nM.
For `CC(C)c1nn(CC(=O)Nc2ccncc2F)c(=O)c2ccc(Br)cc12` [Example 8, 2-(6-Bromo-4-isopropyl-1-oxophthalazin-2(1H)-yl)-N-(3-fluoropyridin-4-yl)acetamide], in that order: less than 10000 nM and 235 nM.
For `CC(C)c1nn(CC(=O)Nc2ncncc2F)c(=O)c2ccc(Br)c(F)c12` [Example 9, 2-(6-Bromo-5-fluoro-4-isopropyl-1-oxophthalazin-2(1H)-yl)-N-(5-fluoropyrimidin-4-yl)acetamide], in that order: less than 10000 nM and 144 nM.
For `CC(C)c1nn(CC(=O)NC2CN(C(=O)OC(C)(C)C)CC(F)(F)C2)c(=O)c2ccc(Br)cc12` (stereo not shown) [Example 10, tert-Butyl-5-[[2-(6-bromo-4-isopropyl-1-oxo-phthalazin-2-yl)acetyl]amino]-3,3-difluoro-piperidine-1-carboxylate], in that order: less than 10000 nM and 3050 nM.
On to `CC(C)c1nn(CC(=O)NC2CNCC(F)(F)C2)c(=O)c2ccc(Br)cc12` (stereo not shown) [Example 11, 2-(6-bromo-4-isopropyl-1-oxophthalazin-2(lH)-yl)-N-(5,5-difluoropiperidin-3-yl)acetamide HCl salt], for which the IC50 is, setting by setting: under setting [1], less than 10000 nM; under setting [2], 3150 nM.
The matching figures for `CCN1CC(NC(=O)Cn2nc(C(C)C)c3cc(Br)ccc3c2=O)CC(F)(F)C1` (stereo not shown) [Example 12]: less than 10000 nM and 2590 nM.
For `CC(F)(F)c1nn(CC(=O)Nc2ncncc2F)c(=O)c2ccc(Br)cc12` [Example 13, 2-[6-bromo-4-(1,1-difluoroethyl)-1-oxophthalazin-2-yl]-N-(5-fluoropyrimidin-4-yl)acetamide], in that order: less than 10000 nM and 2320 nM.
The molecule `CC(C)c1nn(C(C)C(=O)Nc2ncncc2F)c(=O)c2ccc(Br)cc12` (stereo not shown) [Example 14, 2-(6-bromo-1-oxo-4-propan-2-ylphthalazin-2-yl)-N-(5-fluoropyrimidin-4-yl)propanamide] yielded an IC50 under setting [1] of less than 10000 nM and an IC50 under setting [2] of 3660 nM.
With `CC(C)c1nn(CC(=O)Nc2ncncc2F)c(=O)c2ccc(OC(F)(F)F)cc12` [Example 15, N-(5-fluoropyrimidin-4-yl)-2-[1-oxo-4-propan-2-yl-6-(trifluoromethoxy)phthalazin-2-yl]acetamide], the IC50 is less than 10000 nM under setting [1] and 6270 nM under setting [2].
For `CC(C)c1nn(CC(=O)Nc2ncncc2F)c(=O)c2ccc(OC(F)F)cc12` [Example 16, 2-[6-(difluoromethoxy)-1-oxo-4-propan-2-ylphthalazin-2-yl]-N-(5-fluoropyrimidin-4-yl)acetamide], in that order: less than 10000 nM and 787 nM.
For `CC(c1nn(CC(=O)Nc2ncncc2F)c(=O)c2ccc(Br)cc12)C(F)(F)F` (stereo not shown) [Example 17, 2-[6-bromo-1-oxo-4-(1,1,1-trifluoropropan-2-yl)phthalazin-2-yl]-N-(5-fluoropyrimidin-4-yl)acetamide], in that order: less than 10000 nM and 876 nM.
For `CC(c1ccc2c(=O)n(CC(=O)Nc3ncncc3F)nc(Br)c2c1)C(F)(F)F` (stereo not shown) [Example 18, 2-[4-bromo-1-oxo-6-(1,1,1-trifluoropropan-2-yl)phthalazin-2-yl]-N-(5-fluoropyrimidin-4-yl)acetamide], in that order: 10000 to 15000 nM and 10700 nM.
As for `CC(C)c1nn(CC(=O)Nc2ncncc2F)c(=O)c2ccc(C3CC3)cc12` [Example 19, 2-(6-cyclopropyl-1-oxo-4-propan-2-ylphthalazin-2-yl)-N-(5-fluoropyrimidin-4-yl)acetamide], the IC50 is less than 10000 nM under setting [1] and 334 nM under setting [2].
